Assay results published in PMC5089653, “Isoxazole‐Derived Amino Acids are Bromodomain‐Binding Acetyl‐Lysine Mimics: Incorporation into Histone H4 Peptides and Histone H3” (Angewandte Chemie (International Ed. in English), 2016).
Read-outs that look alike come from different tables or passages of the source.

Columns and labels:
BRD4(1) = molecular target: T1, BRD4(1) (Homo sapiens, UniProt O60885); test: AlphaScreen assay inhibiting the interaction of BRD4(1) with biotinylated H4(KAc)4; format: binding; conditions: for inhibition at 0.004 µM / Percentage inhibition of bromodomain-KAc recognition, BRD4(1), H4(KAc)4: AlphaScreen, average of triplicate, BRD4(1) 10 nM, biotin-H4(KAc)4 4 nM
T1 construct: the phylogenetically diverse BAZ2A, BRD4(1), and BRD9 bromodomains; His tag (pNIC28-Bsa4 vector; purified on HisTrap) (N); made in house; host or cells: E. coli BL21 (DE3) Gold
Excerpt: (§1) Supporting Table S1: Percentage inhibition of bromodomain-KAc recognition by isoxazole-containing amino acids.
(§2) Inhibitory values of unprotected amino acids given as average percentage inhibition (buffer […]
(§3) measurements in triplicate (AlphaScreen). n.d. value not determined. Inhibition values highlighted as a heatmap from green (low inhibition) to red (high inhibition). […]
(§4) Protein expression and purification: bromodomain-containing constructs in pNIC28-Bsa4 vector backbones were transformed into E. coli BL21 (DE3) Gold cells. Flasks containing […]
(§5) starter culture. Flasks (2000 mL PYREX® narrow-mouth graduated Erlenmeyer flasks or plastic baffled flasks) were incubated at 37 °C and 180 rpm in an Innova® 44 shaker (New Brunswick Scientific). When OD600 reached 0.8-1.0, the temperature was lowered to 18 °C and IPTG was added to a final concentration of 0.25 mM to induce protein expression.
(§6) Cultures were incubated at 18 °C overnight, after which time cultures were harvested by centrifugation in a JA10 rotor in an Avanti J25 centrifuge (Beckman CoulterTM) at 8000 rpm for 15 min at 4 °C. The resulting pellet was weighed and stored in a sealable plastic bag at - 80 °C. Proteins were purified with a 3 mL HisTrapTM chromatography column (GE Healthcare), and Superdex 75 XK 16/600 gel filtration column (GE Healthcare) using standard

BAZ2A [1] = molecular target: T2, BAZ2A (Homo sapiens, UniProt Q9UIF9); test: AlphaScreen single shot screening, BAZ2A with biotin-H3K14Ac peptide; format: binding; conditions: average of triplicate, BAZ2A 25 nM, biotin-H3 5-24 KAc14 50 nM, read-out: Percentage inhibition of bromodomain-KAc recognition, BAZ2A, H3K14Ac; for inhibition at 250 µM: amino acid 250 μM, <0.5% DMSO
T2 construct: the phylogenetically diverse BAZ2A, BRD4(1), and BRD9 bromodomains; Structural Genomics Consortium (Oxford)
T2 sequence (Q9UIF9 1793-1897 limits assumed): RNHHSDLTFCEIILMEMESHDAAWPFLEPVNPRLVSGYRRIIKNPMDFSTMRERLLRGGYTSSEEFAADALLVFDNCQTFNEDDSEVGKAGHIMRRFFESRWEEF
Excerpt: as §1, §2, §3, §4, §5
as §6, with “Healthcare), and Superdex 75 XK 16/600 gel filtration column (GE Healthcare) using standard” left out
(§7) AlphaScreen assay: AlphaScreen buffer (25 mM HEPES, 100 mM NaCl, 0.05% w/v CHAPS, 0.1% w/v BSA; pH 7.6) was prepared fresh each day, filter sterilization through a 0.22 µm filter, and stored at 4 °C, with equilibration to room temperature before use. Single shot screening against BAZ2A and BRD9A was carried out by the Structural Genomics Consortium (Oxford) as described previously.[12] Biotinylated peptides employed and final assay […]
(§8) biotin-H35-24KAc14 50 nM. Amino acids were tested at 25 µM and 250 µM with <0.5% DMSO.

BRD9 [2] = molecular target: T3, BRD9 (Homo sapiens, UniProt Q9H8M2); test: AlphaScreen single shot screening, BRD9 with biotin-H2A(KAc)3 peptide; format: binding; conditions: average of triplicate, BRD9 40 nM, biotin-H2A 1-21 KAc9KAc13KAc15 25 nM, read-out: Percentage inhibition of bromodomain-KAc recognition, BRD9, H2(KAc)3; for inhibition at 25 µM: amino acid 50 μM as headed in Table 1 (supplement: 25 µM); for inhibition at 250 µM: amino acid 250 μM, <0.5% DMSO
T3 construct: the phylogenetically diverse BAZ2A, BRD4(1), and BRD9 bromodomains; Structural Genomics Consortium (Oxford)
T3 sequence (Q9H8M2 136-240 limits assumed): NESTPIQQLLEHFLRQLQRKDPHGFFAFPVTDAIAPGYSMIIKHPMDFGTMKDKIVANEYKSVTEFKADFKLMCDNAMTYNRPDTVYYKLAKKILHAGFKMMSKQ
Excerpt: as §1, §2, §3, §4, §5
as §6, with “Healthcare), and Superdex 75 XK 16/600 gel filtration column (GE Healthcare) using standard” left out
as §7, §8

bromodomain of BRDT = conditions: KAc mimics containing MTCTK; cited from earlier work
Excerpt: Lysine acetylation is a prevalent post‐translational modification (PTM) which plays a fundamental role in regulating protein function.1, 2 Although acetylated lysine (KAc) residues are found throughout the cellular environment,3, 4, 5 it is the role of this PTM in chromatin function which has garnered most recent interest.6 KAc is viewed as one of the “marks” that comprises the epigenetic code,7, 8 and enzymes that write (histone acetyl transferases) and erase (histone deacetylases) this modification are well characterized.9 Neutralization of lysine's positive charge by acetylation weakens the ...

BAZ2A [3] = molecular target: T2, BAZ2A; test: AlphaScreen single shot screening, BAZ2A with biotin-H3K14Ac peptide; format: binding; conditions: amino acid 50 μM as headed in Table 1 (supplement: 25 µM), average of triplicate, BAZ2A 25 nM, biotin-H3 5-24 KAc14 50 nM, read-out: Percentage inhibition of bromodomain-KAc recognition, BAZ2A, H3K14Ac
BRD9 [4] = molecular target: T3, BRD9; test: AlphaScreen single shot screening, BRD9 with biotin-H2A(KAc)3 peptide; format: binding; conditions: amino acid 50 μM as headed in Table 1 (supplement: 25 µM), average of triplicate, BRD9 40 nM, biotin-H2A 1-21 KAc9KAc13KAc15 25 nM, read-out: Percentage inhibition of bromodomain-KAc recognition, BRD9, H2(KAc)3
[5] = read-out: Percentage inhibition of bromodomain-KAc recognition, BRD4(1), H4(KAc)4, amino acid 50 μM
[6] = read-out: Percentage inhibition of bromodomain-KAc recognition, BRD4(1), H4(KAc)4, amino acid 250 μM, buffer blank 0%, 25% DMSO 100% inhibition
[7] = amino acid 250 μM, buffer blank 0%, 25% DMSO 100% inhibition

Compound | inhibition at 0.004 µM (BRD4(1); [5]) [%] | inhibition at 0.004 µM (BRD4(1); [6]) [%] | inhibition at 250 µM (BAZ2A [1]) [%] | inhibition (BAZ2A [1]) [%] | inhibition at 25 µM (BRD9 [2]) [%] | inhibition at 250 µM (BRD9 [2]) [%] | further results
Cc1cc(COC[C@H](N)C(=O)O)on1 [compound 4] | 0.6 | 10.3 | – | – | – | – | –
Cc1noc(C)c1-c1cccc(C[C@H](N)C(=O)O)c1 [compound 8] | 18.3 | > 70 | 45.3 | 5.8 | -7.7 | 0.5 | Percentage inhibition of bromodomain-KAc recognition, BRD4(1), H4(KAc)4 (BRD4(1); [7]): 76.3%
CSC(=O)NCCSC[C@H](N)C(=O)O [compound 7, methylthiocarbonylthialysine] | – | – | – | – | – | – | interaction with the bromodomain of BRDT compared to KAc (bromodomain of BRDT): two‐ to fourfold less efficiently
Cc1noc(C)c1-c1cc(O)cc(C(O)c2ccccc2)c1 (stereo not drawn) [compound 2, reference compound] | – | – | – | – | – | – | inhibition by positive control (BRD4(1); included on each plate of the amino acid screen as a positive control, in every case, concentration not given): 100%
Cc1cc(C(=O)NC[C@H](N)C(=O)O)on1 [compound 5, (S)-2-Amino-3-(3-methylisoxazole-5-carboxamido)propanoic acid] | – | – | 98.7 | – | – | 73.6 | Percentage inhibition of bromodomain-KAc recognition, BRD4(1), H4(KAc)4 (BRD4(1); amino acid 50 μM): 2.5%; Percentage inhibition of bromodomain-KAc recognition, BRD4(1), H4(KAc)4 (BRD4(1); [7]): 31.2%; inhibition at 50 µM (BAZ2A [3]): 58.1%; inhibition at 50 µM (BRD9 [4]): 28.6%
Cc1noc(C)c1-c1ccc(C[C@H](N)C(=O)O)cc1 [compound 9] | 22.7 | 45.8 | 28.1 | 2.6 | -1.7 | 66.5 | –
Cc1cc(NC(=O)C[C@H](N)C(=O)O)no1 [compound 13] | 0.9 | 26.3 | 96.1 | 12.6 | -1 | 47.9 | –
CC(=O)NCCCC[C@H](N)C(=O)O [KAc, reference compound] | – | – | – | – | – | – | Percentage inhibition of bromodomain-KAc recognition, BRD4(1), H4(KAc)4 (BRD4(1); amino acid 50 μM): 4.6%
Cc1cc(CNC(=O)C[C@H](N)C(=O)O)on1 [compound 11] | 4.7 | 18.5 | 53.8 | 1.9 | -8.1 | -0.1 | –
Cc1cc(NC(=O)C[C@H](N)C(=O)O)on1 [compound 14] | – | – | 84.3 | 14.5 | 1.4 | 14.6 | –
Cc1noc(C)c1NC(=O)C[C@H](N)C(=O)O [compound 12] | 1.3 | 23.5 | 66.9 | 10.5 | -2.1 | 12.6 | –
Cc1cc(CCC[C@H](N)C(=O)O)on1 [compound 3, (S)-2-Amino-5-(3-methylisoxazol-5-yl)pentanoic acid] | – | – | – | – | – | – | Percentage inhibition of bromodomain-KAc recognition, BRD4(1), H4(KAc)4 (BRD4(1); amino acid 50 μM): 2.3%; Percentage inhibition of bromodomain-KAc recognition, BRD4(1), H4(KAc)4 (BRD4(1); [7]): 16.4%
Cc1noc(C)c1NC(=O)CC[C@H](N)C(=O)O [compound 10, N5-(3,5-Dimethylisoxazol-4-yl)-L-glutamine] | 4.1 | 7.5 | 25.1 | 1.4 | -4.8 | -3.1 | –
